Read-outs that look alike come from different tables or passages of the source.
How the values were obtained:
MDA-MB-468 tumors [1] = settings: 75 mg/kg, reference 100; cited from earlier work
oncogenic HSP90 = assay: PU-H71-FITC2 binding to pancreatic and breast cancer cell lines relative to HL-60 versus viability
MO-91 tumors = assay: pharmacodynamic study in MO-91 xenografted tumors; type: in vivo, mice; settings: post-administration of one dose
Method: Pharmacodynamic Study: Four- to 6-week-old nu/nu athymic female mice were obtained from Taconic Farms. Experiments were carried out under an Institutional Animal Care and Use Committee-approved protocol, and institutional guidelines for the proper and humane use of animals in research were followed. HEL and MO-91 cells were subcutaneously implanted in the right flank of mice using a 20-gauge needle and allowed to grow. Before administration, a solution of PU-H71-HCl was formulated in sterile PBS. For this assay, tumors were allowed to reach 6-8 mm in diameter before treatment. […] Tumors were homogenized and proteins analyzed by western blot as described above.

MDA-MB-468 tumors [2] = assay: PU-H71 tumor concentration predicted from [^124I]-PU-H71 PET (equation 1a, simulations)
[3] = as above; settings: mouse, tumor (MDA-MB-468), 75 mg/kg
circulating tumor cells = assay: number of circulating tumor cells in blood of patient after PU-H71; type: in vivo, human; settings: 24 h after 20 mg/m2
Source text: Circulating tumor cells (CTCs) are cells that have detached from a primary tumor and circulate in the bloodstream. CTCs may constitute seeds for subsequent growth of additional tumors (metastasis) in different tissues.

MDA-MB-468 tumors [4] = assay: efficacy in MDA-MB-468 xenografts; type: in vivo, mice; settings: for anti-tumor effect: 75 mg/kg, 5 weeks
Method: Efficacy Studies. Mice (n=5) bearing MDA-MB-468 tumors reaching a volume of 100-150 mm^3 were treated i.p. (i.p.) using different doses and schedules, as indicated. Tumor volume was determined by measurement with Vernier calipers, and tumor volume was calculated as the product of its length×width^2×0.4. Tumor volume was expressed on indicated days as the median tumor volume±SD indicated for groups of mice. Percent (%) tumor growth inhibition values were measured on the final day of study for drug-treated compared with vehicle treated mice and are calculated as 100×{1−[(TreatedFinal day−TreatedDay 1)/(ControlFinal day−ControlDay 1)]}. Tumor regression values were determined by calculating the ratio of median tumor volumes at the time when treatment was initiated to median tumor volume on the final day of study for a given treatment group. Percent (%) tumor regression is 100×[1−(TreatedFinal day/TreatedDay 1)].

HSP90 = settings: for IC50: read-out: IC50, binding to HSP90
Method: FIGS. 1A, 1B, 1C, 1D, and 1E. […] Lysate=control cell extract. FIG. 1B HSP90 from MDA-MB-468 extracts was isolated through sequential chemical- and immuno-purification steps. The amount of HSP90 in each pool was quantified by densitometry and values were normalized to an internal standard. […] Representative data of four separate repeats is presented (lower). Expression of HSP90 in the indicated cells was analyzed by Western blot (upper). […] Post-treatment cells were treated with 1 μM PU-FITC. Binding of PU-FITC to the cells was evaluated by flow cytometry and is represented as mean fluorescence intensity (MFI). TEG-FITC is shown as a non-specific binding control. CD45 vs. SSC gating was used to distinguish binding to blast or lymphocytes from the primary specimens. […] Cell viability was evaluated by annexin V/7-AAD staining 96 h post-treatment.
CD34+ cell isolation was performed using CD34 MicroBead Kit and the automated magnetic cell sorter autoMACS according to the manufacturer's instructions (Miltenyi Biotech, Auburn, CA). […] Cell viability was analyzed by flow cytometry (BD Biosciences). […] Cells were stained with CD34-APC, CD38-PE-CY7 and CD45-APC-H7 antibodies (BD Biosciences) in FACS buffer (PBS, 0.05% FBS) at 4° C. for 30 min prior to Annexin V/7-AAD staining. […] At 4 h post treatment, cells were washed twice with FACS buffer. […] At 24 h post treatment, cells were washed twice, and stained with CD34-APC (or CD34-PECy7), CD38-PE-CY7 (or CD38-PE) and CD45-APC-H7 antibodies in FACS buffer at 4° C. for 30 min prior to 7-AAD staining. At 48 h, and 96 h post treatment, cells were stained with CD34-APC (or CD34-PECy7), CD38-PE-CY7 (or CD38-PE) and CD45-APC-H7 antibodies followed by Annexin V-V450 and 7-AAD staining to measure cell viability in blast, lymphocytes and CD34+ cell populations. […] Cells were collected, washed twice, stained for 7-AAD in FACS buffer, and analyzed by flow cytometry. HSP90 staining—Cells were fixed with fixation buffer (BD Biosciences) at 4° C. for 30 min, and permeabilized in Perm Buffer III (BD Biosciences) on ice for 30 min. Cells were stained with anti-HSP90 phycoerythrin conjugate (PE) (F-8 clone, Santa Cruz Biotechnologies; CA) for 60 minutes. Cells were washed and then analyzed by flow cytometry. Normal mouse IgG2a-PE was used as isotype control.

CC(C)NCCCn1c(Sc2cc3c(cc2I)OCO3)nc2c(N)ncnc21 [PU-H71]
anti-tumor effect (MDA-MB-468 tumors [1]): tumor regression and cures
sensitivity of HL-60 leukemia cells (oncogenic HSP90): resistant
tumor concentration of PU-H71 (MDA-MB-468 tumors [2]; 1 mg/kg, 48 h and beyond): less than 0.05 μM
simulated tumor concentration at the time of sacrifice (MDA-MB-468 tumors [2]; 5 mg/kg 3×week, 24 h after last dose): 0.43 µM
[PU-H71tumor]avg (MDA-MB-468 tumors [2]; 75 mg/kg, 1×week): 2.88 µM
[PU-H71tumor]avg (MDA-MB-468 tumors [2]; 75 mg/kg, 2×week): 5.41 µM
[PU-H71tumor]avg (MDA-MB-468 tumors [2]; 75 mg/kg, 3×week): 7.45 µM
tumor concentration from PET or biodistribution studies (MDA-MB-468 tumors [2]; 75 mg/kg, 24 h): 5.51 ± 1.78 µM
concentration at 24 h [3]: 5510 nM
concentration at 72 h [3]: 2180 ± 1780 nM
concentration at 96 h [3]: 2180 nM
drop in the number of CTCs in the blood (circulating tumor cells): 6 fold
tumor volume at end of treatment (MDA-MB-468 tumors [4]; 5 mg/kg arm): 139±66 mm^3
tumor growth inhibition (TGI) (MDA-MB-468 tumors [4]; 5 mg/kg i.p. 3×week, 7 weeks): 63%
tumor growth inhibition (TGI) (MDA-MB-468 tumors [4]; 25 mg/kg i.p. 3×week, 7 weeks): 82%
tumor growth inhibition (TGI) (MDA-MB-468 tumors [4]; 50 mg/kg i.p. 3×week, 7 weeks): 99%
regression (MDA-MB-468 tumors [4]; 75 mg/kg i.p. 3×week, 7 weeks): 100%
anti-tumor effect (MDA-MB-468 tumors [4]; 1×week): significant tumor growth inhibition
anti-tumor effect (MDA-MB-468 tumors [4]; 2×week): tumor regressions
average occupancy of tumor HSP90 sites needed for tumor regression and cure (MDA-MB-468 tumors [4]; averaged over the time of treatment): over 80%
average occupied sites that may still lead to partial response (MDA-MB-468 tumors [4]; over the time of treatment): ≥ 15%
